Experimental data published in patent US9445597B2, “Pesticidal compositions and related methods” (DOW AGROSCIENCES LLC, priority 2013, dated 2016).
Like-named read-outs stand apart in the source and are kept apart here.

Tests used:
[1] = tested on: Green Peach Aphid (Myzus persicae) (GPA) (MYZUPE); test: Bioassay for Green Peach Aphid (GPA), foliar spray on cabbage seedlings; type: in vivo; conditions: 72 h, read-out: % Control (or Mortality) rating, GPA
Method: Example A: Bioassay for Green Peach Aphid (Myzus persicae) (GPA) (MYZUPE).
Cabbage seedlings grown in 3-inch pots, with 2-3 small (3-5 cm) true leaves, were used as test substrate. The seedlings were infested with 20-50 GPA (wingless adult and nymph stages) one day prior to chemical application. Four pots with individual seedlings were used for each treatment. Test compounds (2 mg) were dissolved in 2 mL of acetone/methanol (1:1) solvent, forming stock solutions of 1000 ppm test compound. The stock solutions were diluted 5× with 0.025% Tween 20 in H2O to obtain the solution at 200 ppm test compound. A hand-held aspirator-type sprayer was used for spraying a solution to both sides of […] leaves until runoff. Reference plants (solvent check) were sprayed with the diluent only containing 20% by volume of acetone/methanol (1:1) solvent. Treated plants were held in a holding room for three days at approximately 25° C. and ambient relative humidity (RH) prior to grading. Evaluation was conducted by counting the number of live aphids per plant under a microscope. Percent control was measured by using Abbott's correction formula (W. S. Abbott, “A Method of Computing the Effectiveness of an Insecticide” J. Econ. Entomol. 18 (1925), pp. 265-267) as follows. Corrected % Control=100*(X−Y)/X • where • X=No. of live aphids on solvent check plants and • Y=No. of live aphids on treated plants
(§1) Biological Data for Green Peach Aphid (GPA) (MYZUPE) and Sweetpotato Whitefly-crawler (WF) (BEMITA)” (see table section).

[2] = tested on: Sweetpotato Whitefly-crawler (WF) (Bemisia tabaci) (BEMITA); test: Insecticidal test for Sweetpotato Whitefly-crawler (WF) in foliar spray assay on cotton plants; type: in vivo; conditions: 216 h, read-out: % Control (or Mortality) rating, WF
Method: Example B: Insecticidal test for Sweetpotato Whitefly-crawler (WF) (Bemisia tabaci) (BEMITA) in foliar spray assay.
Cotton plants (Gossypium hirsutum) grown in 3-inch pots, with 1 small (4-5 cm) true leaves, were used as test substrate. The plants were infested with 200-400 whitefly eggs 4-5 days prior to chemical application. Four pots with individual plants were used for each treatment. Test compounds (2 mg) were dissolved in 1 mL of acetone solvent, forming stock solutions of 2000 ppm test compound. The stock solutions were diluted 10× with 0.025% Tween 20 in H2O (diluents) to obtain the solution at 200 ppm test compound. A hand-held aspirator-type sprayer was used for spraying a solution to both sides of cotton leaves until runoff. Reference plants (solvent check) were sprayed with the diluent only containing 10% by volume of acetone solvent. Treated plants were held in a holding room for 9 days at approximately 25° C. and ambient relative humidity (RH) prior to grading. Evaluation was conducted by counting the number of live 3-4 nymph stage per plant under a microscope. Percent control was measured by using Abbott's correction formula (W. S. Abbott, “A Method of Computing the Effectiveness of an Insecticide” J. Econ. Entomol. 18 (1925), pp. 265-267) as follows. Corrected % Control=100*(X−Y)/X • where • X=No. of live nymphs on solvent check plants and • Y=No. of live nymphs on treated plants.
as §1

[3] = 200 ppm foliar spray, cabbage seedlings, graded after three days, Abbott corrected % control
[4] = 200 ppm foliar spray, cotton plants, graded after 9 days, Abbott corrected % control

Structure (SMILES) | mortality at 200 ppm ([1]; foliar) [%] | mortality at 200 ppm ([2]; foliar) [%] | mortality at 200 ppm [1, 3] [%] | mortality at 200 ppm [2, 4] [%]
Cc1nc(-c2cc(F)c[n+]([O-])c2)sc1N(C)C(=O)OC(C)(C)C [CA1, 3-(5-((tert-Butoxycarbonyl)(methyl)amino)-4-methylthiazol-2-yl)-5-fluoropyridine 1-oxide] | 80 to 100 | 0 to 80 |  | 
CSCCC(=O)Nc1sc(-c2cccnc2)nc1Cl [Compound C3, N-(4-chloro-2-(pyridin-3-yl)thiazol-5-yl)-3-(methylthio)propanamide] |  |  | 80 to 100 | 0 to 80
CC(CS(C)(=O)=O)C(=O)N(C)c1sc(-c2ccc[n+]([O-])c2)nc1Cl (centres unmarked) [Compound F1, 3-(4-Chloro-5-(N,2-dimethyl-3-(methylsulfonyl)propanamido)thiazol-2yl) pyridine 1-oxide] |  |  | 80 to 100 | 0 to 80
CS(=O)(=O)CCC(=O)Nc1sc(-c2ccc[n+]([O-])c2)nc1Cl [Compound F2] |  |  | 80 to 100 | 0 to 80
CCN(C(=O)CCS(C)(=O)=O)c1sc(-c2ccc[n+]([O-])c2)nc1Cl [Compound F3, 3-(4-chloro-5-(N-ethyl-3-(methylsulfonyl)propanamido)thiazol-2-yl)pyridine 1-oxide] |  |  | 80 to 100 | 80 to 100
CCN(C(=O)CCSCCC(F)(F)F)c1sc(-c2ccc[n+]([O-])c2)nc1Cl [Compound P1, 3-(4-chloro-5-(N-ethyl-3-((3,3,3-trifluoropropyl)thio)propanamido)thiazol-2-yl)pyridine 1-oxide] |  |  | 80 to 100 | 80 to 100
CCN(C(=O)CC[S+]([O-])CCC(F)(F)F)c1sc(-c2ccc[n+]([O-])c2)nc1Cl (centres unmarked) [Compound P2, 3-(4-Chloro-5-(N-ethyl-3-((3,3,3-trifluoropropyl)sulfinyl)propanamido)thiazol-2-yl)pyridine 1-oxide] |  |  | 80 to 100 | 80 to 100
CCN(C(=O)CCS(=O)(=O)CCC(F)(F)F)c1sc(-c2ccc[n+]([O-])c2)nc1Cl [Compound P3, 3-(4-Chloro-5-(N-ethyl-3-((3,3,3-trifluoropropyl)sulfonyl)propanamido)thiazol-2-yl)pyridine 1-oxide] |  |  | 80 to 100 | 80 to 100
CCN(C(=O)CCSC)c1sc(-c2ccc[n+]([O-])c2)nc1Cl [Compound P4, 3-(4-Chloro-5-(N-ethyl-3-(methylthio)propanamido)thiazol-2-yl) pyridine 1-oxide] |  |  | 80 to 100 | 80 to 100
CCN(C(=O)CC[S+](C)[O-])c1sc(-c2ccc[n+]([O-])c2)nc1Cl (centres unmarked) [Compound P5, 3-(4-Chloro-5-(N-ethyl-3-(methylsulfinyl)propanamido)thiazol-2-yl)pyridine 1-oxide] |  |  | 80 to 100 | 80 to 100
CCN(C(=O)C(C)CSC)c1sc(-c2ccc[n+]([O-])c2)nc1Cl (centres unmarked) [Compound P6, 3-(4-Chloro-5-(N-ethyl-2-methyl-3-(methylthio)propanamido)thiazol-2-yl)pyridine 1-oxide] |  |  | 80 to 100 | 80 to 100
CCN(C(=O)C(C)C[S+](C)[O-])c1sc(-c2ccc[n+]([O-])c2)nc1Cl (centres unmarked) [Compound P7, 3-(4-Chloro-5-(N-ethyl-2-methyl-3-(methylsulfinyl)propanamido)thiazol-2-yl)pyridine 1-oxide] |  |  | 80 to 100 | 80 to 100
CCN(C(=O)C(C)CS(C)(=O)=O)c1sc(-c2ccc[n+]([O-])c2)nc1Cl (centres unmarked) [Compound P8, 3-(4-Chloro-5-(N-ethyl-2-methyl-3-(methylsulfonyl)propanamido)thiazol-2-yl)pyridine 1-oxide] |  |  | 80 to 100 | 80 to 100
CSCCC(=O)N(C)c1sc(-c2cc(F)c[n+]([O-])c2)nc1C [FA1, 3-Fluoro-5-(4-methyl-5-(N-methyl-3-(methylthio)propanamido)thiazol-2-yl)pyridine 1-oxide] |  |  | 80 to 100 | 80 to 100
Cc1nc(-c2cc(F)c[n+]([O-])c2)sc1N(C)C(=O)CCS(C)(=O)=O [FA2, 3-Fluoro-5-(4-methyl-5-(N-methyl-3-(methylsulfonyl)propanamido)thiazol-2-yl)pyridine 1-oxide] |  |  | 80 to 100 | 80 to 100
Cc1nc(-c2cc(F)c[n+]([O-])c2)sc1N(C)C(=O)CC[S+](C)[O-] (centres unmarked) [FA3, 3-Fluoro-5-(4-methyl-5-(N-methyl-3-(methylsulfinyl)propanamido)thiazol-2-yl)pyridine 1-oxide] |  |  | 80 to 100 | 80 to 100
